# According to PubChem BioAssay AID1996:
# Conditions: buffer; pH 7.4; 200.0 µM
row,Compound,solubility kinetic [µg/mL]
1,Cc1nnc(NC(=O)CN2C(=O)NC3(CCCC3)C2=O)s1,> 46.4
2,Cc1onc(NC(=O)NC(=O)c2ccccc2F)c1Br,6.8
3,COc1ccc(OC)c(CN2CCCCCC2)c1.O=C(O)C(=O)O,48.2
4,COc1ccc(NC(=O)CN2CCCCC2)cc1S(=O)(=O)N1CCCCC1.O=C(O)C(=O)O,> 72.8
5,Oc1ccc(-c2cnc3ccccc3n2)cc1,26.9
6,NC(=O)C1CCN(S(=O)(=O)c2ccccc2[N+](=O)[O-])CC1,39.8
7,CCOC(=O)C1C(c2ccccc2)NC(=S)NC1(C)O (stereo unspecified),41.6
8,O=C(COC(=O)C1CCC1)NCc1ccc(F)cc1,> 39.8
9,O=C(O)CCNC(=O)c1ccccc1,> 29
10,NC(=O)CC(NSc1ccccc1[N+](=O)[O-])C(=O)O (stereo unspecified),36.9
11,CCN(C(=O)COC(=O)c1ccc([N+](=O)[O-])o1)C1CCCCC1,> 48.6
12,N#Cc1ccccc1NC(=O)c1cc(=O)c2ccccc2o1,1.9
13,CC(C)NC(=O)N1CCC(c2nc3ccccc3s2)CC1,> 45.5
14,Cc1cc(C)cc(OC(C)C(=O)Nc2ccc3c(c2)n(C)c(=O)n3C)c1 (stereo unspecified),37.9
15,Cc1cn(CCC(=O)Nc2ccccc2N2CCOCC2)c2ccccc12,27.5
16,O=C(CSc1cccc[n+]1[O-])N1CCc2ccccc21,> 43
17,CC1CCN(C(=O)CS(=O)(=O)Cc2ccccc2)CC1,42.3
18,CCN(C(=O)COC(=O)c1[nH]c(=O)[nH]c(=O)c1N)c1ccccc1,39.3
19,Cc1nn(C)cc1C(=O)Nc1ccc2c(c1)OCCO2,> 41
20,CCCOc1ccc(N/C=C/C(=O)c2ccc(OC)c(OC)c2)cc1,< 0.7
21,Cc1ccc(CNC(=O)C2CCC(=O)N2C(C)C)cc1 (stereo unspecified),> 41.2

# Next, values leading:
row,solubility kinetic [µg/mL],Compound
1,31.3,CC1COc2ccccc2N1C(=O)c1ccc(Cl)cc1 (stereo unspecified)
2,> 52,CC1(C)CC2(CCO1)C(Nc1ccccc1)=NC(=S)N2CC(N)=O (stereo unspecified)
3,> 63.1,Cc1cnc(C(=O)OCC(=O)Nc2cccc(S(=O)(=O)N3CCOCC3)c2)cn1
4,6.6,Nc1nc(-c2ccc(S(=O)(=O)N3CCCCC3)cc2)cs1
5,9.4,Nc1c(N(Cc2ccccc2)C(=O)COc2ccc(F)cc2Cl)c(=O)[nH]c(=O)n1Cc1ccccc1
6,> 51.7,O=C(NC1CCCN(CCc2ccccc2)C1)c1c(F)cccc1F (stereo unspecified)
7,3.4,Cc1ccsc1C(=O)OCC(=O)Nc1cccc(F)c1
8,33.1,CCOC(=O)c1cc(C#N)c(=S)[nH]c1C
9,7.9,N/C(=N\OC(=O)c1ccc(Cl)c([N+](=O)[O-])c1)c1ccccc1
10,> 41.9,O=C(COC(=O)Cc1ccc(F)cc1)NC1CCCC1
11,43.3,CC(C)NC(=O)CCc1nc2cccnc2n1-c1ccccc1
12,19.6,CCC(C)N1C(=O)CN(C2CCCCCC2)C(=O)C1c1ccccc1F (stereo unspecified)
13,17.6,O=C(Nc1cc(Cl)cc(Cl)c1)c1cccnc1
14,> 47.3,CCOC(=O)N[C@H](Cc1c[nH]c2ccccc12)C(=O)NC1CC1
15,< 0.3,Clc1ccc(Nc2ccc3ccccc3n2)cc1
16,1.2,CCOC(=O)/C(C#N)=C/Nc1ccccc1OC(F)(F)F
17,2.6,Cn1cc(C(C[N+](=O)[O-])c2ccccc2)c2ccccc21 (stereo unspecified)
18,9.8,CC1CCCCC1NC(=O)COC(=O)c1ccc2c(c1)NC(=O)CS2 (stereo unspecified)
19,> 43.1,CC(C)(C)C(=O)Nc1ccc(NC(=O)c2ccco2)nc1
20,12.3,CN(Cc1c(F)cccc1Cl)C(=O)c1cc2ccccc2o1
21,9.6,CC(Oc1ccc(Cl)cc1C(N)=O)C(=O)N1CCc2ccccc21 (stereo unspecified)
22,37,O=C(NCCCl)c1ccc(OCc2ccccc2)cc1Cl
23,1.3,CSc1ccccc1NC(=O)CN(C)CC(=O)Nc1ccc(S(=O)(=O)N2CCCC2)cc1
24,> 44.8,COc1ccc(N2C(=S)NC3CS(=O)(=O)CC32)cc1 (stereo unspecified)
25,4.8,O=C(OCc1nc2ccccc2s1)c1ccccc1O
